Measurements: patent publication US20260184708A1, “PYRIDAZINONES AND METHODS OF USE THEREOF” (GFB (ABC), LLC, priority 2017, published 2026)

biological target: T1, TRPC4 (Homo sapiens, UniProt Q9UBN4); experiment: TRPC4 FLIPR Assay (HEK-TREx hTRPC4, Englerin A stimulation); type: cell-based; details: Table 9; HEK-TREx hTRPC4; read-out: hTRPC4-FLIPR IC50
T1 construct: expressed in transfected cells; host or cells: HEK-TREx (HekTrex-293), cell line ICLN-1694, tetracycline-induced
T1 sequence (Q9UBN4 1-982 isoform Q9UBN4-5): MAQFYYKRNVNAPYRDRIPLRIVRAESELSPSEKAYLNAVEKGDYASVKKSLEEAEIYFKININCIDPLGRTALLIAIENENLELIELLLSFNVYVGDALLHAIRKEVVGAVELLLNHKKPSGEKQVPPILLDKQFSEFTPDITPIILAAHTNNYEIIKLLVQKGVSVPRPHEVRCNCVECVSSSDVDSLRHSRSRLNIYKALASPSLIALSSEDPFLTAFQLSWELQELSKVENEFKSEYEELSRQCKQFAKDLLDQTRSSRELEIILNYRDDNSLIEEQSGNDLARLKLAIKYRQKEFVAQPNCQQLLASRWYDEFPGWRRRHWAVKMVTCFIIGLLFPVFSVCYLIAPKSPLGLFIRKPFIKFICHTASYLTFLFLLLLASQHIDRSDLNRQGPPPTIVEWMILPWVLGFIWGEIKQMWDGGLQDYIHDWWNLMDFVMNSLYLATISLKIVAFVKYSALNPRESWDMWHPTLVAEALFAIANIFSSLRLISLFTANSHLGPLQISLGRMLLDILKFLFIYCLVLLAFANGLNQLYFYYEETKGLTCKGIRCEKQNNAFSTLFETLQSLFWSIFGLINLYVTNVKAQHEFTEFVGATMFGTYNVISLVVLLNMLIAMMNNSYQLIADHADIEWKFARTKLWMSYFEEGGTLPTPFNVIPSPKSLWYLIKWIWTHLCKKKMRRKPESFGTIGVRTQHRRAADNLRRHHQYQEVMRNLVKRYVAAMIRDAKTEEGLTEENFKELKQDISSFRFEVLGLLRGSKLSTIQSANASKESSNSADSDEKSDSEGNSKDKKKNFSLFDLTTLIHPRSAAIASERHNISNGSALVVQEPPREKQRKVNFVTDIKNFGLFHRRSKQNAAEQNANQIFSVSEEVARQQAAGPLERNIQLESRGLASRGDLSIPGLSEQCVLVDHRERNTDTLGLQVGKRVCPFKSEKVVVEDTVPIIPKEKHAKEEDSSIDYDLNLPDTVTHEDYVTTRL
Method: FLIPR Assay Buffer (Earls Balanced Salt Solution (EBSS)) was prepared as follows:
10-point dose response curves were generated using the Echo-550 acoustic dispenser. Compound source plates were made by serially diluting compound stocks to create 10 mM, 1 mM, and 0.1 mM solutions in DMSO into Echo certified LDV plates. The Echo then serially spotted 100% DMSO stock solutions into source dose response plates to generate a 4-fold dilution scheme. 100% DMSO was added to the spotted dose response plates to bring the final volume to 5 μl. […] of the dose response stock plate was then spotted into pre-incubation and stimulation assay plates. […] of pre-incubation buffer and 100 μl of stimulation buffer was then added to the plates resulting in a final assay test concentration range of 30 μM to 0.0001 μM with a final DMSO concentration of 0.3%.
Experimental Methods: Cells expressing TRPC4 were plated onto 384 well, black pdl-coated microplates and maintained in TRPC4 growth media the day prior to use for experiments. TRPC4 expression was induced by the application of 1 μg/ml tetracycline at the time of plating. […] Cells were incubated at room temperature, protected from light, for 60-90 minutes. After the incubation period, the dye was removed and replaced with 10 μl of EBSS. Cell, pre-incubation and stimulation plates were loaded onto the FLIPR-II and the assay was initiated. The FLIPR measured a 10 second baseline and then added 10 μl of 2× compounds (or controls). Changes in fluorescence were monitored for an additional 5 minutes. After a 5 minute pre-incubation, 20 μl of 2× Englerin A (with 1× compound or controls) was added to the cell plate. The final Engerlin A stimulation concentration in the assay is 100 nM. After the Englerin A addition, changes in fluorescence were monitored for an additional 5 minutes.
Test Agent Effect: Test agent modulation of TRPC4 calcium response was determined as follows. After the Englerin A, fluorescence was monitored for a 5 minute period. The maximum relative fluorescence response (minus the control response of […] of the control inhibitor) was captured and exported from the FLIPR. Test agent effect was calculated as % inhibition using the following formula: % inhibition=((RFU TEST AGENT−Plate Average RFU REF INHIB)/(Plate Average RFU CONTROL−Plate Average RFU REF INHIB))×100

C[C@@H](c1ccccc1C(F)(F)F)N1CCN(c2cn[nH]c(=O)c2Cl)CC1=O [drawing 1044] and C[C@@H](c1ccc(F)cc1C(F)(F)F)N1CCN(c2cn[nH]c(=O)c2Cl)CC1=O [drawing 1049] fall in the same range of IC50: 0.01 to 1000 nM for the first, 0.01 to 1000 nM for the second.

For C[C@H](c1ccc(F)cc1C(F)(F)F)N1C[C@@H](C)N(c2cn[nH]c(=O)c2Cl)CC1=O [drawing 1048], the IC50 was 0.01 to 1000 nM.

same assay, conditions: Table 10; HEK-TREx hTRPC4; read-out: TRPC4-FLIPR ICSO

[2H]c1nc2c(n1Cc1ccccc1C(F)(F)F)CCN(c1cn[nH]c(=O)c1Cl)C2 and NC(=O)c1nc2c(n1Cc1ccccc1C(F)(F)F)CCN(c1cn[nH]c(=O)c1Cl)C2 [drawing 1135] fall in the same range of IC50: 0.01 to 1000 nM for the first, 0.01 to 1000 nM for the second.

C[C@H](c1ccc(F)cc1C(F)F)n1nc(C(N)=O)c2c1CCN(c1cn[nH]c(=O)c1Cl)C2 and CC(c1ccc(F)cc1C(F)F)n1nc(C(N)=O)c2c1CCN(c1cn[nH]c(=O)c1Cl)C2 (centres unmarked) [drawing 1114] fall in the same range of IC50: 0.01 to 1000 nM for the first, 0.01 to 1000 nM for the second.

COCc1ccccc1Cn1cnc2c1CCN(c1cn[nH]c(=O)c1Cl)C2 [drawing 1053] and O=c1[nH]ncc(N2CCc3c(ncn3Cc3ccccc3Cl)C2)c1Cl [drawing 1139] fall in the same range of IC50: 0.01 to 1000 nM for the first, 0.01 to 1000 nM for the second.

Compared with COCc1ncccc1Cn1cnc2c1CCN(c1cn[nH]c(=O)c1Cl)C2 [drawing 1065], O=c1[nH]ncc(N2CCc3c(ncn3Cc3ccc(F)cc3Cl)C2)c1Cl [drawing 1136] is lower in IC50: 1000 to 5000 nM for the first, 0.01 to 1000 nM for the second. The second is the more potent here.

C[C@@H]1Cc2c(nnn2[C@@H](C)c2ccccc2C(F)(F)F)CN1c1cn[nH]c(=O)c1Cl [drawing 1071] and C[C@@H]1Cc2c(nnn2[C@@H](C)c2ccc(F)cc2C(F)(F)F)CN1c1cn[nH]c(=O)c1Cl [drawing 1085] fall in the same range of IC50: 0.01 to 1000 nM for the first, 0.01 to 1000 nM for the second.

C[C@H](c1ccccc1C(F)(F)F)n1nnc2c1CCN(c1cn[nH]c(=O)c1Cl)[C@H]2C [drawing 1078] and C[C@H](c1ccc(F)cc1C(F)(F)F)n1nnc2c1CCN(c1cn[nH]c(=O)c1Cl)[C@H]2C [drawing 1092] fall in the same range of IC50: 0.01 to 1000 nM for the first, 0.01 to 1000 nM for the second.

CCS(=O)(=O)c1nc2c(n1Cc1ccccc1C(F)(F)F)CCN(c1cn[nH]c(=O)c1Cl)C2 [drawing 1079] and CS(=O)(=O)c1nc2c(n1Cc1ccccc1C(F)(F)F)CCN(c1cn[nH]c(=O)c1Cl)C2 [drawing 1142] fall in the same range of IC50: 0.01 to 1000 nM for the first, 0.01 to 1000 nM for the second.

O=c1[nH]ncc(N2CCc3c(c(=O)[nH]n3Cc3ccccc3C(F)(F)F)C2)c1Cl [drawing 1081] and CNC(=O)c1nc2c(n1Cc1ccccc1C(F)(F)F)CCN(c1cn[nH]c(=O)c1Cl)C2 [drawing 1134] fall in the same range of IC50: 0.01 to 1000 nM for the first, 0.01 to 1000 nM for the second.

C[C@H](c1ccccc1C(F)F)n1nnc2c1CCN(c1cn[nH]c(=O)c1Cl)C2 [drawing 1100] and C[C@@H](c1ccccc1C(F)F)n1nnc2c1CCN(c1cn[nH]c(=O)c1Cl)C2 [drawing 1106] fall in the same range of IC50: 0.01 to 1000 nM for the first, 0.01 to 1000 nM for the second.

C[C@@H](c1ccc(F)cc1C(F)F)n1nnc2c1CCN(c1cn[nH]c(=O)c1Cl)C2 [drawing 1107] and C[C@H](c1ccccc1Cl)n1nnc2c1CCN(c1cn[nH]c(=O)c1Cl)C2 [drawing 1133] fall in the same range of IC50: 0.01 to 1000 nM for the first, 0.01 to 1000 nM for the second.

CNC(=O)c1nn([C@H](C)c2ccccc2C(F)F)c2c1CN(c1cn[nH]c(=O)c1Cl)CC2 [drawing 1113] and C[C@H](c1ccccc1C(F)(F)F)n1nc(C(N)=O)c2c1CCN(c1cn[nH]c(=O)c1Cl)C2 [drawing 1123] fall in the same range of IC50: 0.01 to 1000 nM for the first, 0.01 to 1000 nM for the second.

CNC(=O)c1nn(Cc2ccc(F)cc2C(F)F)c2c1CN(c1cn[nH]c(=O)c1Cl)CC2 [drawing 1117] and O=c1[nH]ncc(N2CCc3c(nnn3Cc3ccc(F)cc3CC(F)(F)F)C2)c1Cl [drawing 1131] fall in the same range of IC50: 0.01 to 1000 nM for the first, 0.01 to 1000 nM for the second.

C[C@@H]1Cc2c(c(C(N)=O)nn2Cc2ccccc2C(F)(F)F)CN1c1cn[nH]c(=O)c1Cl [drawing 1118] and COC[C@H](c1ccccc1C(F)(F)F)n1cnc2c1CCN(c1cn[nH]c(=O)c1Cl)C2 [drawing 1120] fall in the same range of IC50: 0.01 to 1000 nM for the first, 0.01 to 1000 nM for the second.

C[C@@H](c1cccnc1CC(F)F)n1nnc2c1CCN(c1cn[nH]c(=O)c1Cl)C2 [drawing 1125] and C[C@@H](c1ccccc1Cl)n1nnc2c1CCN(c1cn[nH]c(=O)c1Cl)C2 [drawing 1140] fall in the same range of IC50: 0.01 to 1000 nM for the first, 0.01 to 1000 nM for the second.

CN(c1ncc2c(n1)CN(c1cn[nH]c(=O)c1Cl)C2)c1ccc(F)cc1Cl [drawing 1144] and CCN(c1ncc2c(n1)CN(c1cn[nH]c(=O)c1Cl)C2)c1ccccc1Cl [drawing 1148] fall in the same range of IC50: 0.01 to 1000 nM for the first, 0.01 to 1000 nM for the second.

O=c1[nH]ncc(N2CCc3c(Cc4ccc(F)cc4C(F)(F)F)n[nH]c3C2)c1Cl [drawing 1153] and CCc1ncccc1N(C)c1ncc2c(n1)CN(c1cn[nH]c(=O)c1Cl)C2 [drawing 1154] fall in the same range of IC50: 0.01 to 1000 nM for the first, 0.01 to 1000 nM for the second.
